What was measured:
Phytophthora infestans [1] = experiment: whole plant or invertebrate; format: in vivo; conditions: 144 h, read-out: Efficacy in % of the untreated control
Pyricularia oryzae = experiment: microbe, parasite or virus in culture; format: cell-based; conditions: for inhibition at 63 µg/mL / inhibition at 0.25 µg/mL / inhibition at 1 µg/mL / inhibition at 4 µg/mL / inhibition at 16 µg/mL: Pyricularia oryzae, read-out: Observed activity (%)
Phytophthora infestans [2] = experiment: microbe, parasite or virus in culture; format: cell-based; conditions: for inhibition at 1 µg/mL / inhibition at 4 µg/mL / inhibition at 0.016 µg/mL / inhibition at 0.25 µg/mL / inhibition at […]: Phytophthora infestans, read-out: Observed activity (%)
Botrytis cinerea = experiment: Activity against the gray mold pathogen Botrytis cinerea in the microtiter test; format: cell-based; conditions: single active compound; for inhibition at 0.25 µg/mL: Conc. 0.25 mg/l; for inhibition at 1 µg/mL: Conc. 1 mg/l
[3] = Botrytis cinerea, read-out: Observed activity (%)

COCC(=O)N(c1c(C)cccc1C)C(C)C(=O)OC (racemic) [metalaxyl, methyl N-(methoxyacetyl)-N-(2,6-xylyl)-DL-alaninate, reference compound]
pest or weed control at 16 ppm (Phytophthora infestans [1]): 33%
pest or weed control at 63 ppm (Phytophthora infestans [1]): 56%
inhibition at 63 µg/mL (Pyricularia oryzae): 2%
inhibition at 1 µg/mL (Phytophthora infestans [2]): 6%
inhibition at 4 µg/mL (Phytophthora infestans [2]): 9%

Cc1nc2ncnn2c(N)c1-c1ccc(Cl)c(Cl)c1 [Compound I-9, 6-(3,4-dichlorophenyl)-5-methyl-[1,2,4]triazolo[1,5-a]pyrimidin-7-ylamine]
inhibition at 0.25 µg/mL (Pyricularia oryzae): 7%
inhibition at 1 µg/mL (Pyricularia oryzae): 13%
inhibition at 0.25 µg/mL (Botrytis cinerea; [3]): 8%
inhibition at 0.016 µg/mL (Phytophthora infestans [2]): 1%
inhibition at 0.25 µg/mL (Phytophthora infestans [2]): 7%
inhibition at […] (Phytophthora infestans [2]): 6%

Cc1nc2ncnn2c(N)c1-c1ccc(C(C)(C)C)cc1 [Compound I-18, 6-(4-tert-butylphenyl)-5-methyl-[1,2,4]triazolo[1,5-a]pyrimidin-7-ylamine]
pest or weed control at 16 ppm (Phytophthora infestans [1]): 11%
inhibition at 0.25 µg/mL (Pyricularia oryzae): 15%
inhibition at 1 µg/mL (Pyricularia oryzae): 15%
inhibition at 4 µg/mL (Pyricularia oryzae): 18%
inhibition at 16 µg/mL (Pyricularia oryzae): 29%
inhibition at […] (Botrytis cinerea; Botrytis cinerea, Conc. 0.063 mg/l, read-out: Observed activity (%)): 6%
inhibition at 1 µg/mL (Botrytis cinerea; [3]): 8%
inhibition at 16 µg/mL (Botrytis cinerea; Botrytis cinerea, Conc. 16 mg/l, read-out: Observed activity (%)): 11%
inhibition at 0.25 µg/mL (Phytophthora infestans [2]): 16%
inhibition at 1 µg/mL (Phytophthora infestans [2]): 45%
inhibition at […] (Phytophthora infestans [2]): 6%

CCCCCCCCc1c(C)nc2ncnn2c1N [Compound I-25, 5-methyl-6-octyl-[1,2,4]triazolo[1,5-a]pyrimidin-7-ylamine]
pest or weed control at 16 ppm (Phytophthora infestans [1]): 0%
inhibition at 1 µg/mL (Pyricularia oryzae): 24%
inhibition at 0.25 µg/mL (Botrytis cinerea; [3]): 5%
inhibition at 0.25 µg/mL (Phytophthora infestans [2]): 5%
inhibition at 1 µg/mL (Phytophthora infestans [2]): 13%
inhibition at […] (Phytophthora infestans [2]): 4%

Cc1nc2ncnn2c(N)c1CCC(C)CC(C)(C)C (stereo not shown) [Compound I-28, 5-methyl-6-(3,5,5-trimethylhexyl)-[1,2,4]triazolo[1,5-a]pyrimidin-7-ylamine]
pest or weed control at 63 ppm (Phytophthora infestans [1]): 44%
inhibition at 0.25 µg/mL (Pyricularia oryzae): 12%
inhibition at 1 µg/mL (Pyricularia oryzae): 13%
inhibition at 4 µg/mL (Botrytis cinerea; Botrytis cinerea, Conc. 4 mg/l, read-out: Observed activity (%)): 0%
inhibition at 0.016 µg/mL (Phytophthora infestans [2]): 0%
inhibition at 0.25 µg/mL (Phytophthora infestans [2]): 14%
inhibition at 1 µg/mL (Phytophthora infestans [2]): 24%
inhibition at […] (Phytophthora infestans [2]): 0%

CCCCCCCCc1c(C(F)(F)F)nc2ncnn2c1N [Compound I-98, 6-octyl-5-trifluoromethyl-[1,2,4]triazolo[1,5-a]pyrimidin-7-ylamine]
inhibition at 0.25 µg/mL (Pyricularia oryzae): 0%
inhibition at 1 µg/mL (Pyricularia oryzae): 0%
inhibition at 4 µg/mL (Pyricularia oryzae): 15%
inhibition at 16 µg/mL (Pyricularia oryzae): 43%
inhibition at 0.25 µg/mL (Botrytis cinerea; [3]): 4%
inhibition at 1 µg/mL (Botrytis cinerea; [3]): 5%
inhibition at 0.25 µg/mL (Phytophthora infestans [2]): 6%
inhibition at 1 µg/mL (Phytophthora infestans [2]): 16%
inhibition at 4 µg/mL (Phytophthora infestans [2]): 22%
inhibition at […] (Phytophthora infestans [2]): 5%

CC(CCc1c(C(F)(F)F)nc2ncnn2c1N)CC(C)(C)C (stereo not shown) [Compound I-101, 5-trifluoromethyl-6-(3,5,5-trimethylhexyl)-[1,2,4]triazolo[1,5-a]pyrimidin-7-ylamine]
inhibition at 1 µg/mL (Pyricularia oryzae): 15%
inhibition at 4 µg/mL (Pyricularia oryzae): 16%
inhibition at 16 µg/mL (Pyricularia oryzae): 25%
inhibition at 1 µg/mL (Botrytis cinerea; [3]): 1%
inhibition at 0.25 µg/mL (Phytophthora infestans [2]): 3%
inhibition at 4 µg/mL (Phytophthora infestans [2]): 9%

CCc1nc2ncnn2c(N)c1CCC(C)CC(C)(C)C (stereo not shown) [Compound I-113, 5-ethyl-6-(3,5,5-trimethylhexyl)-[1,2,4]triazolo[1,5-a]pyrimidin-7-ylamine]
pest or weed control at 16 ppm (Phytophthora infestans [1]): 22%
inhibition at 4 µg/mL (Pyricularia oryzae): 7%
inhibition at 0.25 µg/mL (Phytophthora infestans [2]): 3%
inhibition at 4 µg/mL (Phytophthora infestans [2]): 36%

CCCCCCCCc1nc2ncnn2c(N)c1CC [Compound I-290, 6-ethyl-5-octyl-[1,2,4]triazolo[1,5-a]pyrimidin-7-ylamine]
inhibition at 1 µg/mL (Botrytis cinerea; [3]): 4%
inhibition at 0.25 µg/mL (Phytophthora infestans [2]): 0%
inhibition at 4 µg/mL (Phytophthora infestans [2]): 3%
inhibition at […] (Phytophthora infestans [2]): 0%

O=S(=O)([O-])[O-].[Cu+2] [CuSO4, reference compound]
Observed activity (%) (Pyricularia oryzae): 0%
Observed activity (%) (Botrytis cinerea; Conc. 63 mg/l): 0%

CC1CCN(c2c(-c3c(F)cc(F)cc3F)c(Cl)nc3ncnn23)CC1 [[D-8], 5-chloro-7-(4-methylpiperidin-1-yl)-6-(2,4,6-trifluorophenyl)-[1,2,4]triazolo[1,5-a]pyrimidine, reference compound]
inhibition at 1 µg/mL (Phytophthora infestans [2]): 43%

CO/C=C(/C(=O)OC)c1ccccc1Oc1cc(Oc2ccccc2C#N)ncn1 [azoxystrobin]
Observed activity (%) (Phytophthora infestans [2]): 21%

COC(=O)C(C)N(C(=O)Cc1ccccc1)c1c(C)cccc1C (stereo not shown) [benalaxyl]
inhibition at 4 µg/mL (Phytophthora infestans [2]): 13%

O=C(Nc1ccccc1-c1ccc(Cl)cc1)c1cccnc1Cl [boscalid]
inhibition at 63 µg/mL (Pyricularia oryzae): 12%
inhibition at 1 µg/mL (Phytophthora infestans [2]): 2%
inhibition at 4 µg/mL (Phytophthora infestans [2]): 17%

O=C1C2CC=CCC2C(=O)N1SC(Cl)(Cl)Cl (stereo not shown) [captan, 2-trichloromethylsulfanyl-3a,4,7,7a-tetrahydroisoindole-1,3-dione, reference compound]
inhibition at 1 µg/mL (Pyricularia oryzae): 44%
inhibition at 1 µg/mL (Phytophthora infestans [2]): 12%

COC(=O)Nc1nc2ccccc2[nH]1 [carbendazim]
inhibition at 0.25 µg/mL (Pyricularia oryzae): 20%

N#Cc1c(Cl)c(Cl)c(Cl)c(C#N)c1Cl [chlorothalonil]
inhibition at 1 µg/mL (Botrytis cinerea; [3]): 55%

Cc1ccc(-c2c(Cl)nc(C#N)n2S(=O)(=O)N(C)C)cc1 [cyazofamid, 4-chloro-2-cyano-N,N-dimethyl-5-(4-methylphenyl)-1H-imidazole-1-sulfon-amide, reference compound]
pest or weed control at 4 ppm (Phytophthora infestans [1]): 33%
inhibition at 4 µg/mL (Pyricularia oryzae): 23%

CC(C1CC1)C(O)(Cn1cncn1)c1ccc(Cl)cc1 (stereo not shown) [cyproconazole]
inhibition at 4 µg/mL (Pyricularia oryzae): 54%
inhibition at 4 µg/mL (Phytophthora infestans [2]): 9%

Cc1cc(C2CC2)nc(Nc2ccccc2)n1 [cyprodinil]
inhibition at 4 µg/mL (Phytophthora infestans [2]): 10%

CC1COC(Cn2cncn2)(c2ccc(Oc3ccc(Cl)cc3)cc2Cl)O1 (stereo not shown) [difenoconazole]
inhibition at 4 µg/mL (Phytophthora infestans [2]): 24%

CC1CN(C2CCCCCCCCCCC2)CC(C)O1 (stereo not shown) [dodemorph]
inhibition at 16 µg/mL (Pyricularia oryzae): 72%

Reference: US8679514B2, “Fungicidal mixtures based on azolopyrimidinylamines” (BASF SE, priority 2005, dated 2014)
